According to the supplement of paper PMC10307832:

Columns and labels:
Assay in all cases: relative viability (nuclei count vs DMSO), 5 days (fraction); higher = more cells survive
VX-702 + Linsitinib = compound: NC(=O)c1ccc(N(C(N)=O)c2c(F)cccc2F)nc1-c1ccc(F)cc1F [VX-702] + C[C@]1(O)C[C@@H](c2nc(-c3ccc4ccc(-c5ccccc5)nc4c3)c3c(N)nccn32)C1 [Linsitinib] (partner 1 µM)
In short: (§1)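 Lung cancer cell lines, seeded in 1536-well plates, were treated the following day by pin tool with a single drug or with five library-drug doses (not always all listed) in √10 steps on top of a fixed anchor-drug dose. Cells were fixed and nuclei stained in one step after 5 days, and nuclei were counted. Relative viability is the nuclei count for treated wells divided by that for vehicle wells, reported as medians of duplicate plates.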

Dabrafenib + Palbociclib = compound: CC(C)(C)c1nc(-c2cccc(NS(=O)(=O)c3c(F)cccc3F)c2F)c(-c2ccnc(N)n2)s1 [Dabrafenib] + CC(=O)c1c(C)c2cnc(Nc3ccc(N4CCNCC4)cn3)nc2n(C2CCCC2)c1=O [Palbociclib] (partner 0.5 µM)
In short: as §1

VX-702 + Crizotinib = compound: NC(=O)c1ccc(N(C(N)=O)c2c(F)cccc2F)nc1-c1ccc(F)cc1F [VX-702] + C[C@@H](Oc1cc(-c2cnn(C3CCNCC3)c2)cnc1N)c1c(Cl)ccc(F)c1Cl [Crizotinib] (partner 1 µM)
In short: as §1

Dabrafenib + Navitoclax = compound: CC(C)(C)c1nc(-c2cccc(NS(=O)(=O)c3c(F)cccc3F)c2F)c(-c2ccnc(N)n2)s1 [Dabrafenib] + CC1(C)CCC(c2ccc(Cl)cc2)=C(CN2CCN(c3ccc(C(=O)NS(=O)(=O)c4ccc(N[C@H](CCN5CCOCC5)CSc5ccccc5)c(S(=O)(=O)C(F)(F)F)c4)cc3)CC2)C1 [Navitoclax] (partner 0.5 µM)
In short: as §1

Cell Line | relative viability (VX-702 + Linsitinib; first compound 0.02 µM) | relative viability (VX-702 + Linsitinib; first compound 0.2 µM) | relative viability (VX-702 + Linsitinib; first compound 0.6325 µM) | relative viability (VX-702 + Linsitinib; first compound 2 µM) | relative viability (Dabrafenib + Palbociclib; first compound 0.003 µM) | relative viability (Dabrafenib + Palbociclib; first compound 0.009487 µM) | relative viability (Dabrafenib + Palbociclib; first compound 0.03 µM) | relative viability (Dabrafenib + Palbociclib; first compound 0.09487 µM) | relative viability (Dabrafenib + Palbociclib; first compound 0.3 µM) | relative viability (VX-702 + Crizotinib; first compound 0.02 µM) | relative viability (VX-702 + Crizotinib; first compound 0.2 µM) | relative viability (VX-702 + Crizotinib; first compound 0.6325 µM) | relative viability (VX-702 + Crizotinib; first compound 2 µM) | relative viability (Dabrafenib + Navitoclax; first compound 0.003 µM) | relative viability (Dabrafenib + Navitoclax; first compound 0.009487 µM) | relative viability (Dabrafenib + Navitoclax; first compound 0.03 µM) | relative viability (Dabrafenib + Navitoclax; first compound 0.09487 µM) | relative viability (Dabrafenib + Navitoclax; first compound 0.3 µM)
HCC-15 | 0.825 | 0.766 | 0.843 | 0.952 | 0.714 | 0.779 | 0.769 | 0.729 | 0.78 | 0.873 | 0.834 | 0.759 | 0.848 | 0.728 | 0.787 | 0.734 | 0.694 | 0.833
LC-2-ad | 0.778 | 0.799 | 0.922 | 0.885 | 0.52 | 0.511 | 0.495 | 0.476 | 0.478 | 0.502 |  | 0.449 | 0.504 | 0.558 | 0.425 | 0.381 | 0.417 | 0.438
NCI-H520 | 0.962 | 0.936 | 0.915 | 0.925 | 0.216 | 0.228 | 0.196 | 0.241 | 0.217 | 0.887 | 0.687 | 0.784 | 0.966 | 1.3 | 1.11 | 0.985 | 1.07 | 0.936
LOU-NH91 | 1.01 | 0.926 | 0.933 | 0.687 |  | 0.558 | 0.589 | 0.533 | 0.543 | 0.711 | 0.741 | 0.786 | 0.659 |  | 0.848 | 0.741 | 0.719 | 0.664
NCI-H1355 | 0.76 | 0.802 | 0.749 | 0.866 |  | 0.458 | 0.373 | 0.409 | 0.47 | 1.09 | 1.05 | 1.01 | 1.04 |  | 1.01 | 0.894 |  | 1.07
LCLC-97TM1 | 0.131 | 0.189 | 0.172 | 0.207 |  | 0.206 | 0.266 | 0.184 | 0.198 | 0.285 | 0.342 | 0.421 | 0.558 |  | 0.368 | 0.536 |  | 0.427
NCI-H1792 | 0.404 | 0.484 | 0.458 | 0.5 |  | 0.718 | 0.66 | 0.63 | 0.66 | 1 | 0.913 | 0.992 | 1.17 |  | 0.61 | 0.608 | 0.568 | 0.557
LK-2 | 0.711 | 0.436 |  | 0.542 | 0.687 | 0.377 |  | 0.555 | 0.84 | 0.258 |  | 0.223 | 0.23 | 1.09 | 0.985 | 0.662 | 0.938 | 0.936
RERF-LC-KJ | 0.956 | 0.883 | 0.876 | 0.966 | 1.11 | 1.09 | 1.13 | 1.02 | 1.13 | 0.876 | 0.849 | 0.825 | 0.875 | 1.21 | 1.21 | 0.902 |  | 1.15
LU99A | 0.511 | 0.517 | 0.466 | 0.515 | 0.477 | 0.387 | 0.388 | 0.39 | 0.393 | 0.61 | 0.467 | 0.475 | 0.437 | 0.928 | 0.722 | 0.792 | 0.896 | 0.753
SK-MES-1 | 1.06 | 0.997 | 1.04 | 1.1 |  | 0.296 | 0.27 | 0.258 | 0.31 | 0.989 | 0.94 | 0.986 | 1.09 | 1.22 | 1.22 | 1.2 | 1.04 | 1.17
NCI-H322M | 0.999 | 0.905 | 0.918 | 0.883 |  | 0.545 |  | 0.526 | 0.477 | 1.04 | 0.861 | 1.01 | 1.08 |  | 1.38 |  | 1.12 | 1.17
EMC-BAC-2 | 0.83 | 0.796 | 0.816 | 0.892 |  | 0.497 | 0.448 | 0.427 | 0.418 | 0.779 | 0.678 | 0.791 | 0.698 | 1.27 | 1.19 | 0.998 | 1.1 | 1.19
HCC-78 | 0.448 | 0.508 | 0.427 | 0.492 | 0.366 | 0.481 | 0.414 | 0.426 | 0.498 | 0.348 | 0.327 | 0.321 | 0.341 |  | 0.908 | 0.702 | 0.795 | 0.869
NCI-H2085 | 0.911 | 0.882 | 0.903 | 1.02 | 0.455 | 0.463 | 0.501 | 0.471 | 0.456 | 0.921 | 0.926 | 1.03 | 0.908 | 1.15 | 1.14 | 1.16 | 1.1 | 1.09
NCI-H441 | 0.699 | 0.429 | 0.369 | 0.747 |  | 0.268 | 0.239 | 0.2 | 0.248 | 0.715 | 0.707 | 0.711 | 0.838 |  | 0.547 | 0.461 | 0.543 | 0.465
NCI-H1975 | 1.01 | 0.998 | 0.887 | 1.17 | 0.437 | 0.581 | 0.553 | 0.456 | 0.384 | 0.919 | 0.982 | 0.889 | 1.14 | 1.2 | 1.11 | 0.954 | 1 | 1.18
COR-L23 | 1.09 | 1.06 | 0.959 | 1.26 | 0.25 | 0.328 | 0.245 | 0.275 | 0.207 | 0.768 | 0.666 | 0.668 | 0.757 | 0.948 | 0.997 | 0.908 | 0.927 | 0.894
